How the values were obtained:
CB1 receptor [1] = molecular target: T1, CB1 receptor (Homo sapiens, UniProt P21554); test: β-arrestin recruitment in CNR1 PathHunter cell line, allosteric modulation of CP55,940 response; type: cell-based; details: for Emax: read-out: β-arrestin activity EMax (%)
Description: (§1) For allosteric determination, cells were preincubated with compound followed by agonist challenge at the EC20 concentration of the agonist. 5 μL of 4× compound was added to cells and incubated at 37° C. for 30 minutes. 5 μL of 4× EC20 agonist was added to cells and incubated at 37° C. for 30 minutes.
(§2) Data Analysis: Dose curves were plotted using GraphPad Prism or Activity Base. The percentage activity is calculated using the following formula: % Activity=100%×(1−(mean RLU of test sample−mean RLU of MAX control)/(mean RLU of vehicle control [EC20 for PAM]−mean RLU of MAXcontrol).
(§3) Agonist (CP55,940) dose curves were performed for the CNR1 PathHunter and cAMP Hunter cell lines. […] The cAMP assay was performed in the presence of 20 μM forskolin (EC80).
(§4) In Vitro Evaluation: The in vitro evaluation of the covalent allosteric modulators was performed using as described previously.

CB1 receptor [2] = molecular target: T1, CB1 receptor; test: DiscoveRx HitHunter cAMP XS+ assay in cAMP Hunter cell line, allosteric modulation of CP55,940 response; type: cell-based; details: for Emax: read-out: cAMP activity ECMax (%)
Description: Once it was established that the cells were healthy and growing normally, cells were passaged from flasks using cell dissociation reagent buffer and seeded into white walled clear bottom 384-well microplates for compound profiling. For profiling, cells were seeded at a density of 10000 cells per well in a total volume of 20 μL and were allowed to adhere and recover overnight prior to compound addition. Cells were treated the following day using the protocols shown below. cAMP modulation was determined using the DiscoveRx HitHunter cAMP XS+ assay.
Media was aspirated from cells and replaced with 10 μL 1:1 HBSS/Hepes: cAMP XS+ Ab reagent. Agonist (CP55,940) dose curves were performed to determine the EC20 value for the testing with the compounds of the present technology. 5 μL of 4× agonist was added to each well with an equal concentration of vehicle present. EC20 agonist concentration was determined directly from agonist dose curve.
as §1
Signal Detection: After appropriate compound incubation, assay signal was generated through incubation with 20 μL cAMP XS+ED/CL lysis cocktail for one hour followed by incubation with 20 μL cAMP XS+EA reagent for three hours at room temperature. Microplates were read following signal generation with a PerkinElmer Envision™ instrument for chemiluminescent signal detection.
as §2, §3, §4

[3] = Table 1, CP55,940 as agonist, read-out: β-arrestin EC50
[4] = Table 1, preincubation with compound, then CP55,940 challenge, 20 μM forskolin
[5] = Table 1, preincubation with compound, then CP55,940 challenge, 20 μM forskolin, read-out: cAMP EC50
[6] = Table 2, covalent allosteric modulators, read-out: β-arrestin activity EC50 (nm)
[7] = Table 2, covalent allosteric modulators
[8] = Table 2, covalent allosteric modulators, read-out: cAMP activity EC50 (nm)

T1 sequence (P21554 whole entry): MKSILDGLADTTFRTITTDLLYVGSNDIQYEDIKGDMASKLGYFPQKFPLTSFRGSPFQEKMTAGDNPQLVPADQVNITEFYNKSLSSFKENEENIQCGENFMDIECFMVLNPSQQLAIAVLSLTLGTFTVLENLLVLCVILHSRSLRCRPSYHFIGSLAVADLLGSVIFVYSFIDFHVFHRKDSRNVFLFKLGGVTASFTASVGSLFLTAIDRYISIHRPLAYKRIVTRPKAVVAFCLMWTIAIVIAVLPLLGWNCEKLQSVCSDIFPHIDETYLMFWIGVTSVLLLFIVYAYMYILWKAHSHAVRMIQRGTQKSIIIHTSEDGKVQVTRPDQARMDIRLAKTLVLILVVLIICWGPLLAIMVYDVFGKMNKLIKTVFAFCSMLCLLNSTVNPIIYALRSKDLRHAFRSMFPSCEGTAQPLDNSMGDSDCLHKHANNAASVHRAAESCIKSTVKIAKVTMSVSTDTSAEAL

| Compound | β-arrestin % inhibition (CB1 receptor [1]; Table 1, CP55,940 as agonist) [%] | EC50 (CB1 receptor [1]; [3]) [nM] | cAMP % inhibition (CB1 receptor [2]; [4]) [%] | EC50 (CB1 receptor [2]; [5]) [nM] | EC50 (CB1 receptor [1]; [6]) [nM] | Emax (CB1 receptor [1]; [7]) [%] | EC50 (CB1 receptor [2]; [8]) [nM] | Emax (CB1 receptor [2]; [7]) [%] | Emax (CB1 receptor [1]) [%] | Emax (CB1 receptor [2]) [%] |
| --- | --- | --- | --- | --- | --- | --- | --- | --- | --- | --- |
| O=C(Nc1cccc(-c2cccc(N3CCCC3)n2)c1)Nc1ccc(Cl)c(I)c1 [Compound 19b, 1-(4-Chloro-3-iodophenyl)-3-(3-(6-(pyrrolidin-1-yl)pyridin-2-yl)phenyl)urea] | 120 | 126 | 30 | > 10000 |  |  |  |  |  |  |
| O=C(Nc1ccc(F)cc1)Nc1cccc(-c2cccc(N3CCCC3)n2)c1 [Compound 10t, 1-(4-Fluorophenyl)-3-(3-(6-(pyrrolidin-1-yl)pyridin-2-yl)phenyl)urea] | 108 | 7 | 119 | 148 |  |  |  |  |  |  |
| O=C(Nc1ccccc1)Nc1cccc(-c2cccc(N3CCCC3)n2)c1 [Compound 10q, 1-Phenyl-3-(3-(6-(pyrrolidin-1-yl)pyridin-2-yl)phenyl)urea] | 135 | 110 |  | 501 |  |  |  |  |  |  |
| COc1ccccc1NC(=O)Nc1cccc(-c2cccc(N3CCCC3)n2)c1 [Compound 10j, 1-(2-Methoxyphenyl)-3-(3-(6-(pyrrolidin-1-yl)pyridin-2-yl)phenyl)urea] | 93 | 1230 | 0 | > 10000 |  |  |  |  |  |  |
| [N-]=[N+]=Nc1ccc(NC(=O)Nc2cccc(-c3cccc(N4CCCC4)n3)c2)cc1 [GAT331] |  |  |  |  | 106 | 138 | 297 | 128 |  |  |
| O=C(Nc1ccc(Cl)cc1)Oc1cccc(-c2cccc(N3CCCC3)n2)c1 [Compound 31, 3-(6-(Pyrrolidin-1-yl)pyridin-2-yl)phenyl (4-chlorophenyl)carbamate] | 58 | 8660 | 8.8 | > 10000 |  |  |  |  |  |  |
| CN(C(=O)Nc1cccc(-c2cccc(N3CCCC3)n2)c1)c1ccc(Cl)cc1 [Compound 13a, 1-(4-Chlorophenyl)-1-methyl-3-(3-(6-(pyrrolidin-1-yl)pyridin-2-yl)phenyl)urea] | 99 | 1020 | 17 | 1640 |  |  |  |  |  |  |
| O=C(Nc1cccc(Oc2ccccc2)c1)Nc1cccc(-c2cccc(N3CCCC3)n2)c1 [Compound 10l, 1-(3-Phenoxyphenyl)-3-(3-(6-(pyrrolidin-1-yl)pyridin-2-yl)phenyl)urea] | 117 | 86 | 57 | 2240 |  |  |  |  |  |  |
| Cc1ccccc1NC(=O)Nc1cccc(-c2cccc(N3CCCC3)n2)c1 [Compound 10p, 1-(3-(6-(Pyrrolidin-1-yl)pyridin-2-yl)phenyl)-3-(o-tolyl)urea] | 104 | 361 | 97 | 1700 |  |  |  |  |  |  |
| O=C(Nc1cccc(-c2cccc(N3CCCC3)n2)c1)Nc1cccc2ccccc12 [Compound 10w, 1-(Naphthalen-1-yl)-3-(3-(6-(pyrrolidin-1-yl)pyridin-2-yl)phenyl)urea] | 109 | 1270 | 69 | 1260 ± 125 |  |  |  |  |  |  |
| O=C(NCCc1ccc(N2CCCCC2)cc1)c1[nH]c2ccc(Cl)cc2c1CCN=C=S [GAT209] |  |  |  |  | 225 |  | > 10000 |  | 104 | 0 |
| O=C(Nc1ccc(Cl)cc1)Nc1cccc(-c2cccc(N3CCCC3)c2)c1 [Compound 64] | 110 | 27 | 84 | 679 |  |  |  |  |  |  |
| O=C(Nc1ccc(Cl)cc1)Nc1ccccc1-c1cccc(N2CCCC2)n1 [Compound 55, 1-(4-Chlorophenyl)-3-(2-(6-(pyrrolidin-1-yl)pyridin-2-yl)phenyl)urea] | 61 | 5860 | 110 | 3400 |  |  |  |  |  |  |
| O=C(Nc1cccc(-c2cccc(N3CCCC3)n2)c1)Nc1ccccc1C(=O)O [Compound 16, 2-(3-(3-(6-(Pyrrolidin-1-yl)pyridin-2-yl)phenyl)ureido)benzoic acid] | 1.5 | > 10000 | 35 | > 10000 |  |  |  |  |  |  |
| O=C(Nc1cccc(-c2cccc(N3CCCC3)n2)c1)Nc1ccc(Cl)cc1CCCCO [Compound 24a, 1-(4-Chloro-2-(4-hydroxybutyl)phenyl)-3-(3-(6-(pyrrolidin-1-yl)pyridin-2-yl)phenyl)urea] | 126 | 276 | 82 | 1230 |  |  |  |  |  |  |
| O=C(Nc1ccc(Cl)cc1)Nc1ccc(-c2cccc(N3CCCC3)n2)cc1 [Compound 51, 1-(4-Chlorophenyl)-3-(4-(6-(pyrrolidin-1-yl)pyridin-2-yl)phenyl)urea] | 109 | 206 | 11 | > 10000 |  |  |  |  |  |  |
| O=C(Nc1ccc(Cl)cc1)Nc1cccc(-c2ccnc(N3CCCC3)c2)c1 [Compound 57, 1-(4-Chlorophenyl)-3-(3-(2-(pyrrolidin-1-yl)pyridin-4-yl)phenyl)urea] | 111 | 77 | 50 | 9790 |  |  |  |  |  |  |
| Clc1ccc(Nc2nnc(-c3cccc(-c4cccc(N5CCCC5)n4)c3)o2)cc1 [Compound 42, N-(4-Chlorophenyl)-5-(3-(6-(pyrrolidin-1-yl)pyridin-2-yl)phenyl)-1,3,4-oxadiazol-2-amine] | 31 | 5850 | 43 | > 10000 |  |  |  |  |  |  |
| O=C(Nc1cccc(-c2cccc(N3CCCC3)n2)c1)Nc1ccccc1Oc1ccccc1 [Compound 10m, 1-(2-Phenoxyphenyl)-3-(3-(6-(pyrrolidin-1-yl)pyridin-2-yl)phenyl)urea] | 80 | 795 | 18 | > 10000 |  |  |  |  |  |  |
| CCc1ccccc1NC(=O)Nc1cccc(-c2cccc(N3CCCC3)n2)c1 [Compound 10r, 1-(2-Ethylphenyl)-3-(3-(6-(pyrrolidin-1-yl)pyridin-2-yl)phenyl)urea] | 76 | 3320 | 42 | 1190 ± 120 |  |  |  |  |  |  |
| O=C(Nc1cccc(-c2cccc(N3CCCC3)n2)c1)Oc1ccc(Cl)cc1 [Compound 13b, 4-Chlorophenyl (3-(6-(pyrrolidin-1-yl)pyridin-2-yl)phenyl)carbamate] | 24 | 5370 | 3.5 | > 10000 |  |  |  |  |  |  |
| CCc1c(C(=O)NCCc2ccc(N3CCCCC3)cc2)[nH]c2ccc(N=C=S)cc12 [GAT100] |  |  |  |  | 9.06 |  | 186 |  | 106 | 89.4 |
| O=C(Nc1cccc(-c2cccc(N3CCCC3)n2)c1)Nc1ccccc1Cl [Compound 10d, 1-(2-Chlorophenyl)-3-(3-(6-(pyrrolidin-1-yl)pyridin-2-yl)phenyl)urea] | 105 | 2170 | 39 | > 10000 |  |  |  |  |  |  |
| O=C(Nc1ccc(I)cc1)Nc1cccc(-c2cccc(N3CCCC3)n2)c1 [GAT205] |  |  |  |  | 11.5 | 105 | 253 | 102 |  |  |
| S=C(Nc1ccc(Cl)cc1)Nc1cccc(-c2cccc(N3CCCC3)n2)c1 [Compound 32, 1-(4-Chlorophenyl)-3-(3-(6-(pyrrolidin-1-yl)pyridin-2-yl)phenyl)thiourea] | 110 | 276 | 77 | 830 |  |  |  |  |  |  |
| O=C(Nc1cccc(Cl)c1)Nc1cccc(-c2cccc(N3CCCC3)n2)c1 [Compound 10c, 1-(3-Chlorophenyl)-3-(3-(6-(pyrrolidin-1-yl)pyridin-2-yl)phenyl)urea] | 128 | 260 | 111 | 782 |  |  |  |  |  |  |
| O=C(Nc1cccc(-c2cccc(N3CCCC3)n2)c1)Nc1ccc(Cl)c(C#CCCO)c1 [Compound 22b, 1-(4-Chloro-3-(4-hydroxybut-1-yn-1-yl)phenyl)-3-(3-(6-(pyrrolidin-1-yl)pyridin-2-yl)phenyl)urea] | 123 | 149 | 152 | 551 |  |  |  |  |  |  |
| O=C(Nc1cccc(-c2cccc(N3CCCC3)n2)c1)Nc1ccc(Cl)cc1I [Compound 19a, 1-(4-Chloro-2-iodophenyl)-3-(3-(6-(pyrrolidin-1-yl)pyridin-2-yl)phenyl)urea] | 118 | 1200 | 53 | 1270 |  |  |  |  |  |  |

From patent US9926275B2 (priority 2013, dated 2018)
